Data set [1] has as its target T1, OCT1 (Homo sapiens, UniProt O15245).
T1 sequence (O15245 1-554): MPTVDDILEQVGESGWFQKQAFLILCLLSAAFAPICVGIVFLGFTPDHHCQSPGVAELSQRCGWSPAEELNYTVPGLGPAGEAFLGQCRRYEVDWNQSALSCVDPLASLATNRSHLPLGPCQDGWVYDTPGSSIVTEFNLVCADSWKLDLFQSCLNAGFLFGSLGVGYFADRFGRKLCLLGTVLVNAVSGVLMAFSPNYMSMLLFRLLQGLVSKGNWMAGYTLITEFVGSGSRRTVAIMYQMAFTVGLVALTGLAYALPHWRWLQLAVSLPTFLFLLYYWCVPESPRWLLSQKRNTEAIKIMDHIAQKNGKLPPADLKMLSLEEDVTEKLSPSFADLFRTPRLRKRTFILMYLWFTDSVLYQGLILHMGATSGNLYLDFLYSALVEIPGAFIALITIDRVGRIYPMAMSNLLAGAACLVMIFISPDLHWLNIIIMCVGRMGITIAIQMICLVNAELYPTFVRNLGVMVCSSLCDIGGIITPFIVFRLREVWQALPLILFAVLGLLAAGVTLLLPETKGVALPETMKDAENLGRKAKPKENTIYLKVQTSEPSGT
The settings on record: for Uptake / CLuptake: single wells; for CLuptake, Mean: mean of wells.

The test system of data set [2] is sandwich-cultured PXB-cells. The note with it: human, 1 μM.
For data set [3] the following is noted: blood/plasma concentration ratio, cited from earlier work.
Data set [4] can be described thus: Reported human in vivo biliary excretion clearance and intrinsic clearance estimated from it (Eq. 4).
For data set [5] the following is noted: cited from earlier work; for Observed in vivo CLbile: human.
The conditions of data set [6]: cited from earlier work.
Data set [7] is described as follows: icHep permeation assay (sinusoidal to bile side) to estimate drug biliary excretion clearance. The note with it: human.
The test system of data set [8] is primary human hepatocytes / PXB-cells. The data set is described as follows: Counting hepatocyte bile canaliculi opening to the culture equipment (hemi-lumen formation rate). The format is cell-based. The settings on record: for hemi-lumen formation rate: PXB-cells (donor), supports individually coated with each claudin; for Open bile canalicular formation rate (%) Mean / Open bile canalicular formation rate (%): icHep (JFC), claudin coating; for Open bile canalicular formation rate (%) Mean: mean of 3; for Open bile canalicular formation rate (%): single replicate. As for the experimental part:
Transwell^TM permeable support used was coated with 50 μg/ml rat tail collagen I (Corning) in 0.02 N acetic acid at room temperature for 1 h. Transwell^TM was washed twice with PBS, then the in vitro-synthesised claudin-1, -2, -3, and -9 proteins were applied to Transwell^TM at a density of 750 ng/cm^2 each and incubated at room temperature for 1 h. Transwell^TM was washed twice with PBS before seeding cells. Cryopreserved human hepatocytes (Donor ID. HU1663) were purchased from Thermo Fisher Scientific and thawed using CHRM. The hepatocytes were then diluted with WEM containing CM3000. PXB-cells (Donor ID. JFC, and HUM181001B) were obtained from PhoenixBio (Hiroshima, Japan) as described previously. […] PXB-cells were resuspended in 2% DMSO-supplemented hepatocyte growth medium (d-HCGM)[27]. Cryopreserved human hepatocytes and PXB-cells were seeded at a density of 2.1 × 10^5 cells/cm^2 in the protein-coated culture equipment. After 4 h of incubation, the culture medium was replaced with fresh culture medium to remove the unattached cells. After 24 h of incubation, the cells were cultured in d-HCGM supplemented with 250 μg/ml Matrigel. The spent medium was replaced with fresh medium every 3 days. Donor information for the human hepatocytes used is listed in Supplementary Table 2.
To count the open- and closed-type bile canaliculi, MRP2 immunostaining was performed using the Z-stack function of a confocal microscope (LSM710; Carl Zeiss, Oberkochen, Germany). Immunostaining was performed as previously described. The ratio of open-type bile canaliculi to the total number of bile canaliculi was calculated according to Eq. (1), and the value obtained was evaluated as the induction rate of open-type bile canaliculi. Here, Aopen bile canaliculi and Abile canaliculi indicate the number of open-type bile canaliculi and total number of bile canaliculi, respectively.1 Formationrate%=Aopenbilecanaliculi/Abilecanaliculi×100

Where “and” joins values, the source holds several entries; their conditions need not be identical. Identical values can stand only once. Like-named read-outs stand apart in the source and are kept apart here.

Consider `CN(C)C(=N)N=C(N)N` [Metformin], for which the Uptake was 2.903 ul/106 cells and 3.372 ul/106 cells and 2.496 ul/106 cells and 3.301 ul/106 cells in data set [1] (icHep (HUM181001B), incubation time 0.5 min); 5.838 ul/106 cells and 5.176 ul/106 cells and 6.237 ul/106 cells and 6.072 ul/106 cells in data set [1] (icHep (HUM181001B), incubation time 1 min); 12.5578 ul/106 cells and 11.8508 ul/106 cells and 13.1191 ul/106 cells and 15.8618 ul/106 cells in data set [1] (icHep (HUM181001B), incubation time 2 min); 32.1771 ul/106 cells and 34.4238 ul/106 cells and 29.3661 ul/106 cells and 33.2229 ul/106 cells in data set [1] (icHep (HUM181001B), incubation time 5 min); 3.7065 ul/106 cells and 4.783 ul/106 cells and 4.1818 ul/106 cells and 4.442 ul/106 cells in data set [1] (icHep (JFC), incubation time 0.5 min); 7.468 ul/106 cells and 9.292 ul/106 cells and 7.7376 ul/106 cells and 10.2512 ul/106 cells in data set [1] (icHep (JFC), incubation time 1 min). The Uptake was 17.213 ul/106 cells and 18.5255 ul/106 cells and 16.0946 ul/106 cells and 17.048 ul/106 cells in data set [1] (icHep (JFC), incubation time 2 min); 50.6594 ul/106 cells and 43.7801 ul/106 cells and 38.495 ul/106 cells and 43.9119 ul/106 cells in data set [1] (icHep (JFC), incubation time 5 min). The “CLuptake, Mean” value in data set [1] (icHep (HUM181001B)) was determined as 7.52 ul/min/106 cells; in data set [1] (icHep (JFC)), 8.82 ul/min/106 cells. In addition, the CLuptake in data set [1] (icHep (HUM181001B)) was 6.72 ul/min/106 cells and 6.68 ul/min/106 cells and 6.88 ul/min/106 cells and 9.79 ul/min/106 cells; in data set [1] (icHep (JFC)), 7.5 ul/min/106 cells and 9.0 ul/min/106 cells and 7.1 ul/min/106 cells and 11.6 ul/min/106 cells.
Turning to `CC[C@H]1OC(=O)[C@H](C)[C@@H](O[C@H]2C[C@@](C)(OC)[C@@H](O)[C@H](C)O2)[C@H](C)[C@@H](O[C@@H]2O[C@H](C)C[C@H](N(C)C)[C@H]2O)[C@](C)(O)C[C@@H](C)C(=O)[C@H](C)[C@@H](O)[C@]1(C)O` [Erythromycin, erythromycin], the “BEI (%) Mean” value in data set [2] (2 min) was determined as 46.3%; in data set [2] (5 min), 22.5%; in data set [2] (10 min), 30.0%; in data set [2] (20 min), 54.8%. The “Predicted in vivo CLbile, int, Mean” value in data set [2] (2 min) was 2262 mL/min; in data set [2] (5 min) it was 289 mL/min; in data set [2] (10 min), 238 mL/min; in data set [2] (20 min), 310 mL/min. In addition, the Rb in data set [3] (reported value) and in data set [3] was 0.75 in each case. The “Observed in vivo CLbile, int” value in data set [4] (estimated from observed CLbile with fp, Rb, Qh 1400 ml/min) is 285 mL/min; in data set [4] (estimated from observed in vivo CLbile with fp, Rb and Qh 1400 ml/min) it was 285 mL/min. In addition, the “Observed in vivo CLbile” value in data set [5] (reported in vivo biliary excretion clearance) and in data set [5] (reported value) was 80.3 mL/min throughout. Moreover, the “Biliary excretion clearance, in vivo, observed, CLbile” value in data set [5] (in vivo) is 80.3[36] ml/min. In data set [6] (plasma), the “fp, unbound fraction of the plasma protein” value was 0.305[37]. Also, the fp is listed as 0.305 in data set [6] (unbound fraction of the plasma protein) and 0.305 in data set [6] (unbound fraction, reported value). The hepatocyte CLint at 1 μM is 0.732 ± 0.0721 µL/min/1e6 cells in data set [7] and 0.793 ± 0.0723 µL/min/1e6 cells in data set [7] (Biliary excretion clearance, in vitro, observed, CLbile, int, icHep (HUM181001B), CLbile,app of icHep minus control cells).

B1: claudin-2: human claudin-2 protein from E. coli cell-free synthesis, coated on the permeable support (protein, UniProt P57739 1-230, looked up)
Claudin-2: MASLGLQLVGYILGLLGLLGTLVAMLLPSWKTSSYVGASIVTAVGFSKGLWMECATHSTGITQCDIYSTLLGLPADIQAAQAMMVTSSAISSLACIISVVGMRCTVFCQESRAKDRVAVAGGVFFILGGLLGFIPVAWNLHGILRDFYSPLVPDSMKFEIGEALYLGIISSLFSLIAGIILCFSCSSQRNRSNYYDAYQAQPLATRSSPRPGQPPKVKSEFNSYSLTGYV
Consider B1, for which, in data set [8], the hemi-lumen formation rate is on record as 48.9 ± 12%; the “Open bile canalicular formation rate (%) Mean” value worked out at 48.9%; the “Open bile canalicular formation rate (%)” value was 36.6% and 60.0% and 50.0%.

B2: claudin-9: human claudin-9 protein from E. coli cell-free synthesis, coated on the permeable support (protein, UniProt O95484 1-217, looked up)
Claudin-9: MASTGLELLGMTLAVLGWLGTLVSCALPLWKVTAFIGNSIVVAQVVWEGLWMSCVVQSTGQMQCKVYDSLLALPQDLQAARALCVIALLLALLGLLVAITGAQCTTCVEDEGAKARIVLTAGVILLLAGILVLIPVCWTAHAIIQDFYNPLVAEALKRELGASLYLGWAAAALLMLGGGLLCCTCPPPQVERPRGPRLGYSIPSRSGASGLDKRDYV
As for B2, in data set [8], the hemi-lumen formation rate worked out at 35.9 ± 6.4%; the “Open bile canalicular formation rate (%) Mean” value is on record as 35.9%; the “Open bile canalicular formation rate (%)” value was 30.3% and 42.9% and 34.5%.

B3: claudin-3: human claudin-3 protein from E. coli cell-free synthesis, coated on the permeable support (protein, UniProt O15551 1-220, looked up)
Claudin-3: MSMGLEITGTALAVLGWLGTIVCCALPMWRVSAFIGSNIITSQNIWEGLWMNCVVQSTGQMQCKVYDSLLALPQDLQAARALIVVAILLAAFGLLVALVGAQCTNCVQDDTAKAKITIVAGVLFLLAALLTLVPVSWSANTIIRDFYNPVVPEAQKREMGAGLYVGWAAAALQLLGGALLCCSCPPREKKYTATKVVYSAPRSTGPGASLGTGYDRKDYV
For the molecule B3, in data set [8], the hemi-lumen formation rate is 38.6 ± 8.1%; the “Open bile canalicular formation rate (%) Mean” value came to 38.6%; the “Open bile canalicular formation rate (%)” value was 34.6% and 33.3% and 48.0%.

B4: claudin-1: human claudin-1 protein from E. coli cell-free synthesis, coated on the permeable support (protein, UniProt O95832 1-211, looked up)
Claudin-1: MANAGLQLLGFILAFLGWIGAIVSTALPQWRIYSYAGDNIVTAQAMYEGLWMSCVSQSTGQIQCKVFDSLLNLSSTLQATRALMVVGILLGVIAIFVATVGMKCMKCLEDDEVQKMRMAVIGGAIFLLAGLAILVATAWYGNRIVQEFYDPMTPVNARYEFGQALFTGWAAASLCLLGGALLCCSCPRKTTSYPTPRPYPKPAPSSGKDYV
On to B4, for which, in data set [8], the hemi-lumen formation rate was determined as 44.5 ± 4.8%; the “Open bile canalicular formation rate (%) Mean” value came to 44.5%; the “Open bile canalicular formation rate (%)” value is 50.0% and 41.5% and 42.0%.

The values above are taken from article PMC10444810, “Induction of open-form bile canaliculus formation by hepatocytes for evaluation of biliary drug excretion” (Communications Biology, 2023).
